Measurements published in EP4603105A1, “PHARMACEUTICAL COMPOSITION CONTAINING CYCLIC COMPOUND HAVING SELECTIVE KRAS INHIBITORY EFFECT AGAINST HRAS AND NRAS” (CHUGAI SEIYAKU KABUSHIKI KAISHA, priority 2022, dated 2024).
Read-outs that look alike come from different tables or passages of the source. Where a SMILES comes first, the peptide text is derived from it. Bridges are numbered along the chain shown (N, C = ends). [ ]: non-standard residue; d: D form. The star is where a group is joined. hPhe(3-Cl-4-CF3) = N[C@@H](CCc1ccc(C(F)(F)F)c(Cl)c1)C(=O)O; NPrPhe(4-CF3) = CCCN[C@@H](Cc1ccc(C(F)(F)F)cc1)C(=O)O; NMeGly(cPent) = CN[C@H](C(=O)O)C1CCCC1; NMeD = CN[C@@H](CC(=O)O)C(=O)O; NMeL = CN[C@@H](CC(C)C)C(=O)O; Morpholide = C1CN(*)CCO1; Ac5c = NC1(C(=O)O)CCCC1; Aze = O=C(O)[C@@H]1CCN1; NEtG = CCNCC(=O)O; Sar = CNCC(=O)O

Columns and labels:
[1] = target: GDP-bound NRAS wild-type protein (Homo sapiens, UniProt P01111); assay: Binding to NRAS by surface plasmon resonance (SPR), KD and KD ratio to KRAS
Procedure, shortened: (§1)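 Biotinylated GDP-bound RAS was captured at about 100–300 RU. Running buffer: HBS pH 7.4, 10 mM MgCl2, 10 µM GDP, 1 mM DTT, 0.01% Tween 20, 4% DMSO.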

[2] = system: human lung cancer strain NCI-H441; type: cell-based
Procedure, shortened: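 Step one: dispense the test compound in serial DMSO dilutions. Step three: add the reagent and measure […].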

[3] = target: HRAS wild-type protein (Homo sapiens, UniProt P01112); assay: Binding to HRAS by surface plasmon resonance (SPR), KD and KD ratio to KRAS
Procedure, shortened: as §1

[4] = ratio of KD for GDP-bound NRAS wild-type protein to KD for KRAS
[5] = ratio of KD for HRAS wild-type protein to KD for KRAS

Chain of GDP-bound NRAS wild-type protein (P01111 whole entry): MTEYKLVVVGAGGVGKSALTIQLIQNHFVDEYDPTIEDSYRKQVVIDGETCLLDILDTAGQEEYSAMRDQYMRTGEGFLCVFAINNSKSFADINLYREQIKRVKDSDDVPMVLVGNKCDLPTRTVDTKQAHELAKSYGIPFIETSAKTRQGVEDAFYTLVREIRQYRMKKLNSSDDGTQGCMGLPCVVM
Chain of HRAS wild-type protein (P01112 whole entry): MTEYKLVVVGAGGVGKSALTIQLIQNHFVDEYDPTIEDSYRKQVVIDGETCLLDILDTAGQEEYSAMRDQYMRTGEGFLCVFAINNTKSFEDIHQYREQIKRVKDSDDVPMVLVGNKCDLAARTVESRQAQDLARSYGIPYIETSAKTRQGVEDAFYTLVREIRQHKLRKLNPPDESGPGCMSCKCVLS

CCC[C@H]1C(=O)N[C@@H]([C@@H](C)CC)C(=O)N(C)CC(=O)N(C)[C@H]2C/C=C\CCN(C2=O)[C@@H](Cc2ccc(C(F)(F)F)cc2)C(=O)N(C)CC(=O)N[C@@H](CCc2cc(Cl)c3c(ccn3C)c2)C(=O)N2C[C@H](OCC)C[C@H]2C(=O)NC2(CC(C)(C)C2)C(=O)N(C)[C@@H](C(CC)CC)C(=O)N(C)[C@H](C(=O)N(C)C)CC(=O)N1C [PP2896]
NRAS /KRAS [1, 4]: A (a compound having 10 or more and less than 20 is denoted as A)
IC50 ([2]; NCI-H441 cells, 4 days, CellTiter-Glo, read-out: NCl-H441 IC50): 79.3 nM
HRAS /KRAS [3, 5]: A (a compound having 10 or more and less than 20 is denoted as A)

CCO[C@@H]1CCN2C(=O)[C@H](CCc3cc(F)c(C(F)(F)F)c(F)c3)NC(=O)CN(C)C(=O)[C@H](Cc3ccc(C(F)(F)F)cc3)N3CCCC[C@@H](C3=O)N(C)C(=O)CN(C)C(=O)[C@H]([C@@H](C)CC)NC(=O)[C@H](CC(C)C)N(C)C(=O)C[C@@H](C(=O)N3CCOCC3)N(C)C(=O)[C@H](C3CCCC3)N(C)C(=O)C3(CCC3)NC(=O)[C@H]12 [PP1079]
NRAS /KRAS [1, 4]: B (a compound having 3 or more and less than 10 is denoted as B)
IC50 [2]: 27.2 nM
HRAS /KRAS [3, 5]: B (a compound having 3 or more and less than 10 is denoted as B)

CCO[C@@H]1C[C@H]2C(=O)NC3(CCC3)C(=O)N(C)[C@@H](C3CCCC3)C(=O)N(C)[C@H](C(=O)N(C)C)CC(=O)N(C)[C@@H](CC)C(=O)N[C@@H]([C@@H](C)CC)C(=O)N(C)CC(=O)N(C)[C@H]3CCCCN(C3=O)[C@@H](Cc3ccc(C(F)(F)F)cc3)C(=O)N(C)CC(=O)N[C@@H](CCc3ccc(Cl)c(Cl)c3)C(=O)N2C1 [PP0987]
NRAS /KRAS [1, 4]: C (A compound having a KD ratio of 0.1 or more and less than 3 is denoted as C)
IC50 [2]: 6.8 nM
HRAS /KRAS [3, 5]: C (A compound having a KD ratio of 0.1 or more and less than 3 is denoted as C)

CCCN1C(=O)CN(C)C(=O)CN(CC)C(=O)[C@H]([C@@H](C)CC)NC(=O)[C@H](CC(C)C)N(C)C(=O)C[C@@H](C(=O)N2CCOCC2)N(C)C(=O)[C@H](C2CCCC2)N(C)C(=O)C2(CCCC2)NC(=O)[C@@H]2CCN2C(=O)[C@H](CCc2ccc(C(F)(F)F)c(Cl)c2)NC(=O)CN(C)C(=O)[C@@H]1Cc1ccc(C(F)(F)F)cc1 [PP0294] ([NMeL]I[NEtG][Sar][NPrPhe(4-CF3)][Sar][hPhe(3-Cl-4-CF3)][Aze][Ac5c][NMeGly(cPent)][NMeD]-Morpholide; lactam N-11)
NRAS /KRAS [1, 4]: B (a compound having 3 or more and less than 10 is denoted as B)
IC50 [2]: 55.4 nM
HRAS /KRAS [3, 5]: C (A compound having a KD ratio of 0.1 or more and less than 3 is denoted as C)

CC[C@H](C)[C@@H]1NC(=O)[C@H](CC(C)C)N(C)C(=O)C[C@@H](C(=O)N2CCOCC2)N(CC)C(=O)[C@H](C2CCCC2)N(C)C(=O)C2(CCCC2)NC(=O)[C@@H]2CCCN2C(=O)[C@H](CCc2cc(F)c(C(F)(F)F)c(F)c2)NC(=O)CN(C)C(=O)[C@H](Cc2ccc(C(F)(F)F)cc2)N2CCCCC[C@@H](C2=O)N(C)C(=O)CN(C)C1=O [PP0477]
NRAS /KRAS ([1]; ratio of the KD value with respect to GDP-bound NRAS wild-type protein to the KD value with respect to KRAS): A (a compound having 10 or more and less than 20 is denoted as A)
IC50 [2]: 139 nM
HRAS /KRAS ([3]; ratio of the KD value with respect to HRAS wild-type protein to the KD value with respect to KRAS): A (a compound having 10 or more and less than 20 is denoted as A)

CCC[C@H]1C(=O)N[C@@H]([C@@H](C)CC)C(=O)N(C)CC(=O)N(C)[C@H]2C/C=C\CCN(C2=O)[C@@H](Cc2ccc(C(F)(F)F)cc2)C(=O)N(C)CC(=O)N[C@@H](CCc2cc(F)c(C(F)F)c(F)c2)C(=O)N2C[C@H](OCC)C[C@H]2C(=O)NC2(CC(C)(C)C2)C(=O)N(C)[C@@H](C(CC)CC)C(=O)N(C)[C@H](C(=O)N(C)C)CC(=O)N1C [PP2781]
NRAS /KRAS [1, 4]: AA (a compound having 20 or more is denoted as AA)
IC50 [2]: 64.1 nM
HRAS /KRAS [3, 5]: A (a compound having 10 or more and less than 20 is denoted as A)
